Results from patent US20220193076A1, “METHODS OF TREATING BREAST CANCER WITH TUCATINIB” (Seagen Inc., priority 2019, published 2022).
Where two headings read alike, the source gives them in different places.

How the values were obtained:
[1] = test system: CYP3A4/5; assay: Cytochrome P450 3A4/5 inhibition in human liver microsomes (Example 4); type: in vitro ADME; details: both sexes, pooled human liver microsomes
Protocol: This in vitro study was designed to evaluate the ability of tucatinib to inhibit the major CYP enzyme CYP3A4/5 in human liver microsomes (using two different substrates) with the aim of ascertaining the potential of tucatinib to inhibit the metabolism of concomitantly administered drugs. The inhibitory potency of tucatinib was determined in vitro by measuring the activity of CYP3A4/5 in human liver microsomes in the presence and absence of tucatinib. […] Metabolism-dependent inhibition was further evaluated to determine how quickly (kinact value) and to what extent (Ki value) tucatinib inactivates CYP3A4/5.
Human liver microsomes from non-transplantable, donated livers were prepared and characterized. A mixed-gender pool of 200 individual human liver microsomal samples was used for this study (Sekisui XenoTech catalog number: H2620, lot number: 1210347).
To measure CYP activity, incubations were conducted at approximately 37° C. in 200 μL incubation mixtures (pH 7.4) containing water, potassium phosphate buffer (50 mM), MgCl2 (3 mM), EDTA (1 mM), an NADPH-regenerating system (always the mixture of the following: NADP [1 mM], glucose 6 phosphate [5 mM], glucose 6 phosphate dehydrogenase [1 Unit/mL]), and marker substrate at the final concentrations indicated.
Aliquots of the stock and/or working solutions of tucatinib were manually added to buffer mixtures described above. Incubation mixtures were prepared in bulk to obviate the need for directly pipetting very small volumes (i.e., 1 μL or less). Incubations containing no tucatinib (0 μM; Solvent Control) contained the solvent used to dissolve tucatinib (i.e., DMSO).
The Tecan liquid handling system conducted all remaining steps for the IC50 and Kl/kinact determinations, with the exception of the centrifugation. For these assays, duplicate aliquots of the buffer mixtures were automatically added to 96-well plates at the appropriate locations. Aliquots of a substrate working solution were added to the 96-well plates prior to initiating reactions. Marker substrate reactions were initiated by the addition of an aliquot of an NADPH-regenerating system and were automatically terminated at approximately 5 min by the addition of the appropriate internal standard and stop reagent, acetonitrile. The samples were centrifuged at 920×g for 10 min at 10° C. The supernatant fractions were analyzed by LC-MS/MS. Standards were similarly prepared with the addition of authentic metabolite standards.
Due to the possibility that tucatinib may bind to microsomal protein or lipids, an attempt was made to design these experiments such that, in as many cases as possible, the microsomal protein, incubation time and buffer concentration were 0.1 mg/mL, 5 min and 50 mM, respectively.
To examine its ability to act as a direct inhibitor of enzymes, tucatinib (at concentrations ranging from 0.01 to 10 μM) was incubated with marker substrate and human liver microsomes. The concentrations of marker substrates were based on the Km or S50 data that were determined previously.
To examine its ability to act as a metabolism-dependent inhibitor of CYP3A4/5 enzymes, tucatinib (at the same concentrations used to evaluate direct inhibition) was preincubated at 37±2° C., in duplicate, with human liver microsomes and an NADPH-regenerating system for approximately 30 min. This preincubation allowed for the generation of intermediates that could inhibit human CYP3A4/5 activity. The preincubations were initiated by the addition of an aliquot of an NADPH-regenerating system. To examine its ability to act as a time-dependent inhibitor of CYP3A4/5 enzymes, additional duplicate samples at all tucatinib concentrations were preincubated for 30 min in the presence of pooled human liver microsomes, but in the absence of NADPH. This preincubation allowed assessment of whether any potential increase in inhibition was dependent upon NADPH (e.g., potentially CYP-mediated). […]

[2] = Example 1: renal function (iohexol aGFR, serum creatinine, urine albumin); type: in vivo, human
[3] = target: CYP3A4 (Homo sapiens, UniProt P08684); assay: In vitro time-dependent inhibition of CYP3A4 (background statement); type: in vitro ADME
[4] = target: T1, breast cancer resistance protein (BCRP) (Homo sapiens, UniProt Q9UNQ0); assay: In vitro inhibition of BCRP activity; type: in vitro ADME
T1 sequence (Q9UNQ0 1-655): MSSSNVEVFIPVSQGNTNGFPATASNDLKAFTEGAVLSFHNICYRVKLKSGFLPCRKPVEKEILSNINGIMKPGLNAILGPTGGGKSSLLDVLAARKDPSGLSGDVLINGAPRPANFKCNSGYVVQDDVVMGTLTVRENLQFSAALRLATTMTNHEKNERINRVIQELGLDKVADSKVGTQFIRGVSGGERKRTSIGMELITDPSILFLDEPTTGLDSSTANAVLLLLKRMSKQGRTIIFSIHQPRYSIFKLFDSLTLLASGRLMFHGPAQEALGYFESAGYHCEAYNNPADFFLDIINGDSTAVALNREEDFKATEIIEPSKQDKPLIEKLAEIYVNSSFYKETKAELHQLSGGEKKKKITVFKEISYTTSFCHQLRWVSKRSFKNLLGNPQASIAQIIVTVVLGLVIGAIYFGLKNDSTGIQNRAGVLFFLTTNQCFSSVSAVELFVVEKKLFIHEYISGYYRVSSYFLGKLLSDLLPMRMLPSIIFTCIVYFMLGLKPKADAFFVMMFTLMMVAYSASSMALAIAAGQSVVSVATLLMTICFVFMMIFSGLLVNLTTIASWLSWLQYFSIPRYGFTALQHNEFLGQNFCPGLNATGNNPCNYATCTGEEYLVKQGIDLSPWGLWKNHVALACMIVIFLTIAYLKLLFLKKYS

[5] = test system: MATE1/2K; assay: Phase 1 drug-drug interaction study: effect of tucatinib on metformin pharmacokinetics (Example 1); details: healthy subjects, tucatinib 300 mg bid
[6] = following multiple doses of tucatinib

CYP3A4, sequence (P08684 whole entry): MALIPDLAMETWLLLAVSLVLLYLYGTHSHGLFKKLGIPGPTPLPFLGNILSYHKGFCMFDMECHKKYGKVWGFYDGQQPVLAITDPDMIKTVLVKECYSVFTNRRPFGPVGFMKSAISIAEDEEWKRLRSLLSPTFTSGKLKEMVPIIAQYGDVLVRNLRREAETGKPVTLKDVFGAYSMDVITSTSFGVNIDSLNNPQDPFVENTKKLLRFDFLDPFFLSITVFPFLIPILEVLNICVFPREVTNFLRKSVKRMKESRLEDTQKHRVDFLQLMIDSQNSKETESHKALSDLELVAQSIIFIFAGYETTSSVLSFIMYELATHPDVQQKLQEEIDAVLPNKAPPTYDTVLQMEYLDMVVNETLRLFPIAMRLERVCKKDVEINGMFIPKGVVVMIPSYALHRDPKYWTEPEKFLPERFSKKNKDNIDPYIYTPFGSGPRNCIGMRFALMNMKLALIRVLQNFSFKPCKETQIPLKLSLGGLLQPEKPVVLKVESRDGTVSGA

SMILES: Cc1cc(Nc2ncnc3ccc(NC4=NC(C)(C)CO4)cc23)ccc1Oc1ccn2ncnc2c1 [tucatinib]
- kinact/KI ([1]; human, pH 7.4, probe midazolam (1′-hydroxylation), midazolam 1′-hydroxylation, read-out: Efficiency of inactivation (kinact/KI) (converted)): 350 M⁻¹ s⁻¹
- IC50 at 5 min ([1]; human, pH 7.4, probe midazolam (1′-hydroxylation), read-out: IC50, direct inhibition of CYP3A4/5-mediated midazolam 1′-hydroxylation): 3.3 µM
- KI (inactivation) ([1]; human, pH 7.4, probe midazolam (1′-hydroxylation), read-out: KI, inactivation of CYP3A4/5-mediated midazolam 1′-hydroxylation, mean±SE): 0.54 ± 0.25 µM
- kinact ([1]; human, pH 7.4, probe midazolam (1′-hydroxylation), read-out: kinact, inactivation of CYP3A4/5-mediated midazolam 1′-hydroxylation, mean±SE (converted)): 0.000183 s⁻¹
- IC50 at 5 min ([1]; human, pH 7.4, probe testosterone (6β-hydroxylation), read-out: IC50, direct inhibition of CYP3A4/5-mediated testosterone 6p-hydroxylation): > 10 µM
- inhibition at 5 min ([1]; pH 7.4, probe testosterone (6β-hydroxylation), human liver microsomes, up to 10 μM, read-out: Maximum direct inhibition of CYP3A4/5-mediated testosterone 6p-hydroxylation): 44%
- Renal damage ([2]; conclusion of Example 1): does not cause renal damage
- Change in mean serum creatinine [2, 6]: increase
- Measures of renal function including aGFR as assessed by iohexol and urine albumin levels [2, 6]: not affected
- Time-dependent inhibition of CYP3A4 [3]: no time-dependent inhibition
- IC50 [4]: 8.98 µM
- Inhibition of the renal OCT2/MATE1/MATE2-K pathway in vivo [5]: weak inhibitor
